Data reported in BindingDB's records for patent US20250162989 (Vincere Biosciences, 2025).

Molecular target: T1, Ubiquitin carboxyl-terminal hydrolase 30 (Homo sapiens, UniProt Q70CQ3)
T1 sequence (Q70CQ3 whole entry): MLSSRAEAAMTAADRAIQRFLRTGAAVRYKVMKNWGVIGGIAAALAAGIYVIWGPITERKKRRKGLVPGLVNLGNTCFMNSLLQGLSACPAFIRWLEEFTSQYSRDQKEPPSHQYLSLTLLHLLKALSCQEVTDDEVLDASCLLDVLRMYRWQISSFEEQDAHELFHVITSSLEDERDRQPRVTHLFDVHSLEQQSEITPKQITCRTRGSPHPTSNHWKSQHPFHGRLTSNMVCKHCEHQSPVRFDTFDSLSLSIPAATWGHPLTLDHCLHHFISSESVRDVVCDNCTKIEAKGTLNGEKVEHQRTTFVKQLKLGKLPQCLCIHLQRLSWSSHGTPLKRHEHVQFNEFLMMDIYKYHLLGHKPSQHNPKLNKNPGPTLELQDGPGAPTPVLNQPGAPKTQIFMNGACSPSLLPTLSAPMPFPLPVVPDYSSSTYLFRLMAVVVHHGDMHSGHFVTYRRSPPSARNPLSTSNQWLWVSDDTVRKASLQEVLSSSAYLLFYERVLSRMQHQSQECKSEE
Test: In Vitro USP30 Biochemical Assay

- IC50: > 10 µM
SMILES: CC(C)(C)NS(=O)(=O)c1ccc(NC(=O)[C@H]2CCCN2C(=O)c2ccc(F)cc2)cc1 [US20250162989, Compound I-51]
